Consider 15 compounds from patent EP0153803A2, “Triazole antifungal agents” (Pfizer Limited, priority 1984, dated 1985).

SMILES strings stand for the structures.

The first experiment relates to Candida albicans. As to the kind of experiment: in vivo protection of mice inoculated with Candida albicans (PD50). Particulars: Candida albicans, 48 h, vs. Candida albicans in mice; dose giving 50% protection against lethal effect of the infection, 48 hours observation; route not given. The procedure:
The in vivo evaluation of the compounds can be carried out at a series of dose levels by intraperitoneal or intravenous injection or by oral administration, to mice which are inoculated with a strain of Candida albicans. Activity is based on the survival of a treated group of mice after the death of an untreated group of mice following 48 hours observation.- The dose level at which the compound provides 50% protection (PD50) against the lethal effect of the infection is noted. Using the test method described in the text, the following PD50 values were obtained vs. Candida albicans in mice:-
Compound `CC(C)(n1cncn1)C(O)(c1ccc(F)cc1)c1ccc(F)cc1` [Example 6, 1,1-Bis(4-fluorophenyl)-2-methyl-2-(1H-1,2,4-triazol-1-yl)propan-l-ol] displayed an ED50 of 1.6 mg/kg.

With `OC(c1ccc(F)cc1F)(c1ccc(F)cc1F)C(F)n1cncn1` (racemic) [Example 11], the ED50 is below 1 mg/kg.

Regarding `CC(C)(n1cncn1)C(O)(c1ccc(Cl)cc1)c1ccc(F)cc1F` (racemic) [Example 4], the ED50 is 2.3 mg/kg.

Regarding `OC(c1ccc(F)cc1)(c1ccc(F)cc1)C(F)n1cncn1` (stereo not drawn) [Example 8, 2-Fluoro-1,1-di-(4-fluorophenyl)-2-(1,2,4-triazol-1-yl)ethanol], the ED50 turned out to be 0.3 mg/kg.

The compound `OC(c1ccc(Cl)cc1)(c1ccc(Cl)cc1Cl)C(F)n1cncn1` (single isomer, unassigned) [Example 10] showed an ED50 of 3.2 mg/kg.

`CC(F)(n1cncn1)C(O)(c1ccc(Cl)cc1)c1ccc(F)cc1F` (stereo not drawn) [Example 1, 1-(4-Chlorophenyl)-1-(2,4-difluorophenyl)-2-fluoro-2-(1H-3,2,4-triazol-1-yl)propan-1-ol] gave an ED50 of 0.95 mg/kg.

For the compound `OC(c1ccc(F)cc1)(c1ccc(Cl)cc1Cl)C(F)n1cncn1` (single isomer, unassigned) [Example 9 (diastereomer I)], the ED50 was found to be 0.3 mg/kg.

`CC(C)(n1cncn1)C(O)(c1ccc(Cl)cc1)c1ccc(Cl)cc1` [Example 3] returned an ED50 below 1 mg/kg.

The compound `CC(n1cncn1)C(O)(c1ccc(F)cc1)c1ccc(F)cc1F` (single isomer, unassigned) [Example 2] yielded an ED50 below 1 mg/kg.

Consider `CC(C)(n1cncn1)C(O)(c1ccc(F)cc1)c1ccc(F)cc1F` (racemic) [Example 5], for which it took a dose of 2.2 mg/kg to reach the 50% effect level (ED50).

The experiment is the same for the next values; noted with them: vs. Candida albicans in mice; dose giving 50% protection against lethal effect of the infection, 48 hours observation; route not given; 2880 min.
Take `OC(c1ccc(F)cc1)(c1ccc(F)cc1)C(F)n1cncn1` (single isomer, unassigned) [Example 12(-)]: the PD50 turned out to be 0.2 mg/kg.

Compound `OC(c1ccc(Cl)cc1)(c1ccc(F)cc1F)C(F)n1cncn1` (single isomer, unassigned) [Example 7 (diastereomer I), 1-(4-Chloroghenyl)-1-(2,4-difiuorophenyl)-2-fiuoro-2-(1H-1,2,4-triazol-l-yl)-ethanol] had a PD50 of 1.6 mg/kg.

Compound `OC(c1ccc(F)cc1)(c1ccc(Cl)cc1Cl)C(F)n1cncn1` (single isomer, unassigned) [Example 9 (diastereomer II)] came in with a PD50 of 0.5 mg/kg.

With `OC(c1ccc(F)cc1)(c1ccc(F)cc1)C(F)n1cncn1` (single isomer, unassigned) [Example 12(+)], the PD50 stood at 0.75 mg/kg.

In turn, `OC(c1ccc(Cl)cc1)(c1ccc(F)cc1F)C(F)n1cncn1` (single isomer, unassigned) [Example 7 (diastereomer II), 1-(4-Chloroghenyl)-1-(2,4-difiuorophenyl)-2-fiuoro-2-(1H-1,2,4-triazol-l-yl)-ethanol] registered a PD50 of 0.3 mg/kg.

The term ED50 denotes the midpoint of the dose-response relation. Read a high ED50 as a need for a large dose.
